Experimental findings from publication PMC9782245, “Synthesis and Structural Optimization of 2,7,9-Trisubstituted purin-8-ones as FLT3-ITD Inhibitors” (International Journal of Molecular Sciences, 2022) are described below.

The test system of assay [1] is FLT3 signaling (FLT3 Y589/591, STAT5, ERK1/2) in MV4-11 cells. Nature of the assay: Western blot of FLT3 and downstream signaling in MV4-11. Format: cell-based, Human. As to conditions: MV4-11, 1 h treatment. The protocol: Next, we investigated the compounds for their ability to inhibit FLT3 and its downstream signaling in the MV4-11 cell line.
Cell lysates were prepared, and then proteins were separated on SDS-polyacrylamide gels and electroblotted onto nitrocellulose membranes.

For the next assay, the target named is T1, EphA1 (Homo sapiens, UniProt P21709).
T1 construct: purchased Eurofins Discovery (France)
T1 sequence (P21709 26-976): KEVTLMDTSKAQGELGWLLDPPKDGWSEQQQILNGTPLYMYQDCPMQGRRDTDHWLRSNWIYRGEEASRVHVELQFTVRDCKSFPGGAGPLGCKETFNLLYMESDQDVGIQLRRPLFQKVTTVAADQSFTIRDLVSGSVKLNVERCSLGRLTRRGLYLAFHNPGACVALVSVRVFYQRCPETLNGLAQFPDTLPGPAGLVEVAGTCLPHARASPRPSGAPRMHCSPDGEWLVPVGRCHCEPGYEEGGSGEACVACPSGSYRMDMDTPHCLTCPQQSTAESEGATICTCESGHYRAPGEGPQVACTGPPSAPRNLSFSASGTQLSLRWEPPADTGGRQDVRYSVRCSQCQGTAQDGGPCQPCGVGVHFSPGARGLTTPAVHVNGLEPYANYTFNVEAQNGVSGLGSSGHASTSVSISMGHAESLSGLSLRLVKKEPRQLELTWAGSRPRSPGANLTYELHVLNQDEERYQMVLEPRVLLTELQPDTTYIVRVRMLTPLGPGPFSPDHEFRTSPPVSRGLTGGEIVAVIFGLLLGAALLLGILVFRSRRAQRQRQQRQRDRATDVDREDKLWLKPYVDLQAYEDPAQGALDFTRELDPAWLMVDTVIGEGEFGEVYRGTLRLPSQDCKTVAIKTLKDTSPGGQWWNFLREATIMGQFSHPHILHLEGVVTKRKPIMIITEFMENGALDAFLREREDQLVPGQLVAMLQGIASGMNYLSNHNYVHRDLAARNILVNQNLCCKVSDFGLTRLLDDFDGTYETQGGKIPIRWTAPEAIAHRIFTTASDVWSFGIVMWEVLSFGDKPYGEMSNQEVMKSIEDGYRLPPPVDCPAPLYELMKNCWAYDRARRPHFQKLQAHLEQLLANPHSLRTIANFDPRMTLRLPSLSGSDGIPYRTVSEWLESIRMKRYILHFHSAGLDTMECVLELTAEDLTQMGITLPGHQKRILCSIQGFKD
Briefly: Kinase selectivity panel at 1 µM (Eurofins), EphA1. The settings on record: read-out: residual enzyme activity EphA1. Format: biochemical. How it is done:
(§1) Three representative compounds (14d, 14e, and 15a) were profiled in a 1 µM concentration against 30 kinases that were selected as known off-targets of approved CDK4/6 inhibitors. […] Additional sensitive kinases include STK16, EphA1, MEKK2, SRC, and MER (≤10% of residual enzyme activities), which are not targets of the structurally similar CDK4/6 inhibitor, trilaciclib. We also screened compound 15a, an analogue of 14d, bearing isopropyl at position 7 of the purine instead of the methyl group. This change rapidly diminished the potency against CDK4 (dropped to 90% of residual enzyme activity), but the preference for FLT3 remained (1st rank) (Figure 2).
(§2) CDK/cyclin complexes and FLT3 kinases were assayed as previously described. Protein kinase selectivity was evaluated at a single concentration (1 µM) by screening against 30 enzymes at Eurofins Discovery (France).

The next assay has as its target T2, MEKK2 (Homo sapiens, UniProt Q9Y2U5).
T2 construct: purchased Eurofins Discovery (France)
T2 sequence (Q9Y2U5 1-619): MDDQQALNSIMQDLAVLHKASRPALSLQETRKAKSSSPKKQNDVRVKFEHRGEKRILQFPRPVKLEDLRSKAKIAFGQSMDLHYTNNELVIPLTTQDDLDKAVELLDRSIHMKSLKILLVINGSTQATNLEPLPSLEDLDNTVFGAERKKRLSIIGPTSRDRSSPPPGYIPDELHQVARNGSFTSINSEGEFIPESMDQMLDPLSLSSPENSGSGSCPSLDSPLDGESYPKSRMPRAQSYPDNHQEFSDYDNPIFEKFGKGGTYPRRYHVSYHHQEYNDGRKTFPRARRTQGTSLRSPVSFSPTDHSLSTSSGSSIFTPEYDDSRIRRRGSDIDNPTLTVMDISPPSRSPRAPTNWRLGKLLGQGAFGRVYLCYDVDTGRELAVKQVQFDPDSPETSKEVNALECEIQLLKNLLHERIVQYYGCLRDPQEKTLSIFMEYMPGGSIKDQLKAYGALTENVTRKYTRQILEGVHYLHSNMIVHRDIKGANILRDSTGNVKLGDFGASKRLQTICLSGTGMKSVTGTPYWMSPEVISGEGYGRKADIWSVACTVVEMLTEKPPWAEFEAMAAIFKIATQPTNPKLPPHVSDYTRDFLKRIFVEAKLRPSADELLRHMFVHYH
Nature of the assay: Kinase selectivity panel at 1 µM (Eurofins), MEKK2. Format: biochemical. As to conditions: read-out: residual enzyme activity MEKK2. The protocol: as §1, §2

Consider `CC(C)n1c(=O)n(C2CCCC2)c2nc(Nc3ccc(N4CCNCC4)cc3)ncc21` [15a, 9-cyclopentyl-7-isopropyl-2-((4-(piperazin-1-yl)phenyl)amino)-7,9-dihydro-8H-purin-8-one], for which, in assay [1], the “concentration at which dephosphorylation of FLT3 was observed” value is listed as 8 nM and the “concentration giving nearly complete suppression of ERK1/2” value was found to be 40 nM.

On to `Cn1c(=O)n(C2CCCC2)c2nc(Nc3ccc(N4CCNCC4)cc3)ncc21` [14d], for which the remaining activity at 1 µM at EphA1 and on MEKK2 was not above 10% throughout.

With `Cn1c(=O)n(C2CCCCC2)c2nc(Nc3ccc(N4CCNCC4)cc3)ncc21` [14e], the remaining activity at 1 µM on EphA1 and on MEKK2 was not above 10% in each case. In assay [1], the “autophosphorylation of FLT3 kinase at Y589/591” value is given as “inhibits autophosphorylation of FLT3 kinase at Y589/591”. Further, the “phosphorylation of downstream proteins STAT5 and ERK1/2” value in assay [1] is “diminishes the phosphorylation”.
